Here are results for two molecules from EP0986381B1, “USE OF DITERPENES LIKE HYPOESTOXIDES FOR THE MANUFACTURE OF A MEDICAMENT FOR IMMUNOSUPPRESSION, ANTICANCER AND ANTIVIRAL TREATMENT” (Immune Modulation, Inc., priority 1997, dated 1998).

The term inhibition denotes the drop in the measured response relative to a control, in per cent. As usually defined, the IC50 is the concentration that inhibits the measured activity by half.

For one data set, the system named is HSV-1. Nature of the data set: In vitro HSV-1 replication assay, Hybriwix Probe Systems. The data set is classed as cell-based, Herpes simplex virus. Particulars: Human alphaherpesvirus 1, 48 h, two days, African green monkey kidney cells. On the procedure: The antiviral activity of the drug was determined using the Hybriwix™ Probe Systems (Herpes Antiviral Susceptibility Test kit: Diagnostic Hybrids, Inc., Athens, OH). Briefly, either HSV-1 or HSV-2 isolates (ATTC, Rockville, MD) were pre-adsorbed at 37°C and 5% CO2 in a humidified incubator for 60 minutes on African green monkey Kidney cells in a 24-well flat-bottom plate. Following pre-adsorption, the viral inoculum was removed and the growth medium containing various concentrations of appropriate drug was placed in appropriate wells. The culture was continued for 48 hours for the amplification of the virus. Quantification of the HSV DNA present in each well was determined by the nucleic acid hybridization method. The cells and/or virus were lysed with DNA wicking agent and the single-stranded DNA was immobilized on a Hybriwix™ filter by a vertical capillary absorption of the wicking agent/DNA solution. The amount of HSV target DNA from each well was determined using radioactive (I^125)-HSV DNA probe containing genetic sequences, which are homologous to HSV-1 or HSV-2 sequences. The amount of radioactivity present on the Hybriwix™ was dependent upon the amount of HSV DNA present after culture, and was determined in a gamma counter (Packard Instrument Co., Meriden, CT).

Data set [1] concerns one-way MLR-generated human T-lymphocyte-mediated cytolysis. Nature of the data set: Cytolysis by CTLs generated in one-way MLR, 51Cr-release assay. The data set is classed as cell-based. The settings on record: T-cell, 1.0 µg/mL JO-4 during 5-7 day one-way MLR, four hour 51Cr-release, read-out: inhibition of the lytic capability of cytotoxic T-cells. From the text: The "one-way MLR" was set up in tissue culture flasks with mononuclear cells from two different donors as in the "two-way MLR" described above. However, in "one-way MLR", one of the two mononuclear leukocyte populations was rendered incapable of proliferation by treatment with mitomycin C, an antimitotic drug, prior to culture. In this "one-way MLR", the treated cells served exclusively as stimulators and the untreated cells, still capable of proliferation, served as the responders. The responder cells, during a 5-7 day culture period, expressed the CD8+ phenotype but not the CD4+. These CD8+ cells served exclusively as cytolytic T lymphocytes (CTLs) which lyse target cells from the same individual as the original stimulator cell population. In transplantation, these MHC-restricted cytotoxic CD8+ T-cells lyse MHC disparate donor tissue targets, leading to graft rejection (Abbas, A.K., eds., 1994, 2nd ed., Cellular and Molecular Immunology, W.B. Saunders Co., USA; Imagawa, D.K., et al., in Aggarwal, B.B., et al., eds., 1995, Human Cytokines: Their role in Disease and Therapy, Blackwell Science, Inc., Cambridge, MA).
Mononuclear cells of one donor were first treated with mitomycin C (Sigma Chem. Co., St. Louis, MO) (50 µg/50 x 10^6 cells) in 15 mL tubes wrapped in aluminum foil and incubated in a 37°C water bath for 1 hr. […]

Data set [2] has as its system normal human peripheral blood mononuclear cells. Nature of the data set: Colorimetric MTT cytotoxicity assay, normal PBMC. Particulars: 72 hours. It counts as cell-based. The method, then: (§1) The following materials and methods were employed in the non-limiting Examples set out below. Tumor cells: Human cervical epitheloid carcinoma (HeLa), human renal clear cell carcinoma (CAKI-1), human malignant melanoma (RPMI-7951) and mouse malignant melanoma (B16-F1) were procured from ATCC (Rockville, MD) and maintained in vitro with MEM medium (Mediatech, Inc., Herndon, VA) supplemented with 10% heat-inactivated fetal bovine serum (American Qualex, San Clemente, CA), 10mM glutamine, 100 U/ml penicillin, and 100 µg/ml streptomycin (Sigma Chemicals, Saint Louis, MO) (complete medium). […] Cell viability was assessed by trypan blue dye exclusion test and the cell number was adjusted to required concentration. Colorimetric MTT assay: Cytotoxic effects of the hypoestoxide compounds of formulas I and II (JO-4A) were determined in vitro by a colorimetric assay (Mosmann, T., J. Immunol. Methods, 65: 55-63, 1983). […] Mixing with a multichannel pipetter dissolved the dark blue crystals and the absorbance was measured at 545-650 nm using an ELISA plate reader. […] The tumors were measured with a microcaliper, and the tumor volume was calculated by the formula: Length x width x height x 0.5236 (Jungwirth, A. et al., Proc. Natl. Acad. Sci. USA, 94:5810-5813, 1997). […]
On the technique in general: Tetrazolium assays rely on reduction of a dye to a coloured formazan, in cell work by metabolically active cells.

Data set [3] concerns renal carcinoma (CAKI-1) cells. Nature of the data set: Colorimetric MTT cytotoxicity assay, CAKI-1. The data set is classed as cell-based. Particulars: Homo sapiens; CAKI-1, 72 hours. The method, then: as §1
Data set [4] can be described thus: Colorimetric MTT cytotoxicity assay, HUVEC. The data set is classed as cell-based. Particulars: human, read-out: IC50 concentration (cytotoxicity). The method, then: as §1

In the case of `C=C1C(=O)C[C@H]2C[C@@H]3O[C@@]3(C)CC[C@@H]3O[C@@]3(C)C[C@@H](OC(C)=O)[C@H]1C2(C)C` [JO-4, hypoestoxide], the inhibition at 3.125 µM with HSV-1 (3.125 µM) came to 53%. The molecule further came in with an inhibition at 12.5 µM with HSV-1 (12.5 µM) of 60%. For the same molecule, in the data set with HSV-1 (read-out: IC50 dose on HSV-1 inhibition), the IC50 was approximately 3.12 µM. In addition, in data set [1], the inhibition at 1 µg/mL turned out to be 82%.

Consider `C=C1C(=O)CC2CC3OC3(C)CCC3OC3(C)CC(O)C1C2(C)C` (stereo not shown) [JO-4A], for which, in data set [2], the cytotoxic effect entry was “no cytotoxic effect”. In addition, in data set [3], the IC50 was in the range of 20 to 40 µM. The CC50 at 72 h in data set [4] lay in the range of 25 to 50 µM.
